Experimental data from US9518089B2, “Metallothionein-derived peptide fragments” (University of Tasmania, priority 2006, dated 2016).

What was measured:
[1] = test system: cerebellar granule neurons (CGN); assay: Neuronal differentiation (neurite outgrowth) in primary CGN cultures; format: cell-based, rat; conditions: CGN grown 24 h in presence of peptide; FIGS. 1-5
Procedure: Primary cultures of cerebellar granule neurons (CGN) from seven days old rats were plated at a density of 10,000 cells/cm^2 in eight-well permanox chamber slides and left to differentiate for 24 hours in the presence of various concentrations of peptide. Cells were fixated and immuno-stained for GAP-43 to visualise only neurons. CGN cultures were fixed in 4% paraformaldehyde followed by blocking with 1% BSA and then incubateded with polyclonal rabbit antibodies against rat GAP-43 (Chemicon, AH Diagnostics, Aarhus, Denmark) (1:1000 dilution with 1% BSA) followed by incubation with secondary Alexa Fluor® 488 goat anti-rabbit antibodies (Molecular Probes, Eugene, Oreg., USA) (1:700 dilution with 1% BSA. Neurite length was estimated by means of a stereological approach (Rønn et al., 2000). Results are expressed as percentage neurite outgrowth±SEM, with the untreated controls set at 100%. Statistics are performed with a Student's paired t-test. *=p<0.05, **=p<0.01, ***=p<0.001. If not specifically indicated, four experiments were performed for each condition. 2.

[2] = test system: cerebellar granule neurons (CGN); assay: Cell survival assay, low-potassium induced apoptosis of CGN; format: cell-based, rat; conditions: apoptosis induced by 5 mM KCl medium, 48 h; FIGS. 6-9
Procedure: Primary CGN cultures from seven days old rats were plated at a density of 100,000 cells/cm^2 in eight-well permanox chamber slides coated with poly-D-Lysine and grown in a medium supplemented with 40 mM KCl. After 24 hours cytosine-β-D-arabinofuranoside was added to the culture to inhibit proliferation of non-neuronal cells. Neurons were left to differentiate for further 6 days in vitro, before apoptosis was induced by shifting cells into a starving medium containing either 5 mM KCl alone (negative control), 40 mM KCl (positive control) or 5 mM KCl plus various concentrations of peptide. 48 hours after apoptosis induction cells were fixated and stained with Hoechst 33258. Neuronal viability was estimated by comparing the amount of live neurons with the total number of neurons based on nuclear morphology. Results (see FIGS. 6-9) from at least four independent experiments are expressed as percentage survival±SEM, with the negative control set at 100%. Statistics are performed with a Student's paired t-test. *=p<0.05, **=p<0.01, ***=p<0.001. CGN from 7-day-old rats were induced to differentiate for 7 days in a medium with a high potassium concentration after which the neurons were grown for two days in a low potassium medium either in the absence or presence of IGF-1 (positive control), or the MT-derived peptides.

[3] = test system: cerebellar granule neurons (CGN); assay: TUNEL assay (DNA fragmentation) in CGN; format: cell-based, rat; conditions: 24 h after apoptosis induction; FIG. 10
Procedure: Primary cultures of seven days old rats were plated, cultured and induced to under-go apoptosis as described above for neuronal survival, however cells were fixated 24 hour after apoptosis induction. By using the Fluorescien FragEL DNA fragmentation Kit, which label free DNA ends with a green fluorescent colour, the amount of neurons undergoing DNA fragmentation can be estimated and compared to the total amount of cells, which are stained with propidium idodide. Results (see FIG. 10) from at least four independent experiments are expressed as percentage TUNEL positive cells±SEM, with the negative control set at 100%. Statistics are performed with a Student's paired t-test. *=p<0.05, **=p<0.01, ***=p<0.001.

[4] = test system: focal brain injury on the right fronto-parietal cortex; assay: Neuronal rescue and tissue repair in vivo after focal brain injury (dry-ice lesion); design: species or system rat; conditions: rats, tetrameric form of peptide s.c. 10 mg/kg/injection, FIG. 11
Procedure: A focal brain injury on the right fronto-parietal cortex was made by applying a piece of dry-ice (−78° C.) directly onto the skull for 30 seconds in mice and 60 seconds in rats, as previously described in detail (Penkowa and Moos, 1995). The rats were treated s.c. with the tetrameric form of the MTAcc peptide ([…]) one day before lesion and one and two days after the lesion (10 mg/kg bodyweight/injection). Three days after the lesion animals were fixed by transcardial perfusion with paraformaldehyde. Histochemistry and immunohistochemistry (IHC) were performed on sections cut from organs taken from fixated animals. For immunohistochemical investigation, brains were dissected and postfixed in Zamboni's fixative for 2-3 hours, dehydraded in graded alcohol followed by xylol and subsequently embedded in paraffin before being cut in 3 μm frontal sections throughout the entire area of the lesion. Terminal deoxynucleotidyl transferase (TdT)-mediated deoxyuridine triphosphate (dUTP)-biotin nick end labeling (TUNEL) was performed using the Fragment End Labeling (FragEL™) Detection Kit (Calbiochem, USA, code QIA33). The FragEL kit contains all the materials used below and each step was performed according to the manufacturer's recommendations. Sections were also immunostained for markers of oxidative stress such as peroxynitrite-induced nitration of tyrosine residues (NITT) and malondialdehyde (MDA) andfor markers of inflammation such as interleukin (IL)-1, IL-12 and tumor necrosis factor (TNF) α, as described by Penkowa et al. (2000).

MT2 protein (from Sigma) = assay: Surface plasmon resonance (SPR) analysis of peptide binding to immobilized MT2; conditions: for Kd / ka / kd: 25° C., PBS pH 7.4, immobilized MT2; for binding to MT2 protein immobilized on a sensor chip: difference to blank chip
Procedure: FIG. 12 Binding of the MTAcc peptide to MT studied by means of SPR analysis. Approximately 2000 resonance units (RU) of the MT2 protein (Sigma) were immobilized on the sensor chip. The binding is given as the response difference between the binding to the sensor chip with the immobilized MT2 and a blank sensor chip (unspecific binding). The peptide was injected into the sensor chip at a concentration of 0.87 μM. The experiment was repeated four times. FIG. 13 Binding of the MTBcc peptide to MT studied by means of SPR analysis. Approximately 2000 resonance units (RU) of the MT2 protein (Sigma) were immobilized on the sensor chip. The binding is given as the response difference between the binding to the sensor chip with the immobilized MT2 and a blank sensor chip (unspecific binding). The peptide was injected into the sensor chip at a concentration of 8.32 μM. The experiment was repeated four times. FIG. 14 Binding of the MTAn peptide to MT studied by means of SPR analysis. Approximately 2000 resonance units (RU) of the MT2 protein (Sigma) were immobilized on the sensor chip. The binding is given as the response difference between the binding to the sensor chip with the immobilized MT2 and a blank sensor chip (unspecific binding). The peptide was injected into the sensor chip at a concentration of 1.7 μM. Analysis of binding was performed employing a BIAcoreX instrument (Biosensor AB, Uppsala, Sweden) at 25° C. using 10 mM pH 7.4 sodium phosphate containing 150 mM NaCl as running buffer (phosphate-buffered saline, PBS). The flow-rate was 5 μl/min. Data were analysed by non-linear curve-fitting using the manufacturer's software. The MT2 protein (from Sigma) was immobilized on a sensor chip CM5 using an amine coupling kit (Biosensor AB) as follows: the chip was activated by 20 μl activation solution; the protein was immobilized using 12 μl 20 μg/ml protein in 10 mM sodium phosphate buffer pH 6.0; the chip was blocked by 35 μl blocking solution. Various peptides at the indicated concentrations were injected into the sensor chip. The curve corresponding to the difference between binding to MT2 and a blank chip was used for analysis.

Substance	neurite outgrowth / differentiation of cerebellar primary neurons [1]	neuronal survival of CGN [2]	ka (MT2 protein (from Sigma))	kd (MT2 protein (from Sigma))	binding to MT2 protein immobilized on a sensor chip (MT2 protein (from Sigma))	also measured
MDPNSSSAAGDSST (listed as Homo sapiens) [MTBn]	no neuritogenic activity	promoted survival of CGN in a dose dependent manner	–	–	–	–
MDPNCSCAAGDSST (listed as Homo sapiens) [MTBnc]	stimulated differentiation of cerebellar primary neurons	promoted survival of CGN in a dose dependent manner	–	–	–	–
AQGSICKGASDKSS [MTAcc, tetrameric form used in vivo]	stimulated differentiation of cerebellar primary neurons	promoted survival of CGN in a dose dependent manner	4.54 ± 0.21 × 10^3 M^−1 s^−1	4.00 ± 0.27 × 10^−4 s^−1	specifically bind	number of apoptotic neurons (TUNEL positive cells, DNA fragmentation) [3]: strongly reduced the number of apoptotic neurons; number of apoptotic cells (TUNEL staining) ([4]; day -1, +1, +2, analysed 3 days after lesion): dramatic decrease of the number of apoptotic cell; inflammatory response to the lesion (IL-1, IL-12 and TNFα immunostaining) ([4]; 3 days after lesion): inhibition of the inflammatory response to the lesion; oxidative stress (NITT and MDA immunostaining) ([4]; 3 days after lesion): inhibition of oxidative stress; Kd (MT2 protein (from Sigma)): 89.5 nM
KKSSCSCSPVGSAK [MTAn]	–	–	1.57 ± 0.05 × 10^4 M^−1 s^−1	5.74 ± 0.19 × 10^−3 s^−1	specifically bind	Kd (MT2 protein (from Sigma)): 367 nM
IGF-1: positive control in the CGN survival assay [reference compound]	–	could be prevented	–	–	–	–
SAGSSKSKESKSTS (listed as Homo sapiens) [MTBc]	stimulated differentiation of cerebellar primary neurons	promoted survival of CGN in a dose dependent manner	–	–	–	–
SAGSCKCKESKSTS [MTBcc]	stimulated differentiation of cerebellar primary neurons	promoted survival of CGN in a dose dependent manner	2.83 ± 0.93 × 10^3 M^−1 s^−1	5.01 ± 1.75 × 10^−4 s^−1	specifically bind	number of apoptotic neurons (TUNEL positive cells, DNA fragmentation) [3]: strongly reduced the number of apoptotic neurons
KGGEAAEAEAEK (listed as Homo sapiens) [MT31p]	no neuritogenic activity	promoted survival of CGN in a dose dependent manner	–	–	–	–
AQGSISKGASDKSS (listed as Homo sapiens) [MTAc]	stimulated differentiation of cerebellar primary neurons	promoted survival of CGN in a dose dependent manner	–	–	–	–
